The target of experiment [1] is T1, sigma receptors (Cavia porcellus, UniProt Q60492).
T1 construct: A brain of a Hartley guinea pig (weight: 300-400 g) was excised; from tissue; host or cells: Hartley guinea pig brain, membrane preparation
As to the kind of experiment: Experiment using [3H](+)-PTZ as a labeled ligand (affinity for sigma receptors). Also on record: species or system Hartley guinea pig. As to conditions: [3H](+)-PTZ 5 nM; guinea pig brain membrane; 37° C., 150 minutes; averages of 4-11 samples; read-out: IC50 (inhibition of specific binding of [3H](+)-PTZ).
Method: Experiment Using [^3 H](+)-PTZ as a Labeled Ligand
Affinities for sigma receptors were determined by the following method using [^3 H](+)-PTZ as a labeled ligand according to the report of DeHaven-Hudkins et al. (Eur. I. Pharmacol,, 227, 371-378 (1992)).

The test system of experiment [2] is amount of acetylcholine in rat brain. As to the kind of experiment: Increasing effects on the amount of intracerebral acetylcholine (intracerebral microdialysis method). The class given is in vivo, male Wistar rat. As to conditions: oral, 30 minutes after administration, averages of 3-7 samples. As for the experimental part: (The New England Journal of Medicine, 315, 1241-1245 (1986)), the amount of acetylcholine in rat brain was then measured according to the report of Matsuno et al. (Brain Research, 575, 315-319 (1992)). […] 2. […] (The New England Journal of Medicine, 315, 1241-1245 (1986)), an experiment was performed to examine effects of the compounds of this invention on the amount of acetylcholine in rat brain. (Experimental Method) The amount of acetylcholine in rat brain was measured by the following method using intracerebral microdialysis method according to the report of Matsuno et al. (Brain Research, 575, 315-319 (1992)). […] The amount of acetylcholine in rat brain was measured with time. When it became constant, the test compound suspended in 1% methylcellulose solution was administered orally to the rat, and the amount of intracerebral acetylcholine was measured. The amount of acetylcholine in rat brain (average of six samples) to which the test compound was not administered was used as a control.

For a further experiment, the target named is μ receptors (Rattus norvegicus, UniProt P33535).
Experiment [3] concerns the target T1, sigma receptors. As to the kind of experiment: biochemical. On the set-up: species or system Hartley guinea pig. As to conditions: read-out: IC50 (inhibition of specific binding of [3H](+)-SKF-10047).

One may read the IC50 as the midpoint of a concentration-inhibition curve.

SMILES strings stand for the structures. Structures can show the parent of a compound that is named as a salt.

T1 sequence (Q60492 whole entry): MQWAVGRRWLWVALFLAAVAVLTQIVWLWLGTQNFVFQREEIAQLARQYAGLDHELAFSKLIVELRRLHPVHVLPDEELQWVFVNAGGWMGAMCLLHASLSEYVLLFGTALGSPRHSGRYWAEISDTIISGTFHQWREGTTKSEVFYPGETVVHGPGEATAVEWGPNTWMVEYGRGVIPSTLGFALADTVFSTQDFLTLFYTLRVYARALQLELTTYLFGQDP
Chain of μ receptors (P33535 whole entry): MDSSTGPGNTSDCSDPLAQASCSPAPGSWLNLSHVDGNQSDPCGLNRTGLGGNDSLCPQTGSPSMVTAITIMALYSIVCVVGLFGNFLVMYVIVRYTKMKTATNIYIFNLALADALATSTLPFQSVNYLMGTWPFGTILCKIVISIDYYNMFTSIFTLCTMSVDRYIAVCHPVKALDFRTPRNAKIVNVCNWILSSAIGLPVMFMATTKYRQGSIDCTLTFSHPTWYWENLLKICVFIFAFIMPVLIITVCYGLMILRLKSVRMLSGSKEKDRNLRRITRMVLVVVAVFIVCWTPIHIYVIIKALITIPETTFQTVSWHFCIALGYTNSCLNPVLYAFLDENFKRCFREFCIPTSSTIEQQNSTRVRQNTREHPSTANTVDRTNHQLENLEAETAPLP

On to `COc1ccc(CCCN2CCN(CCCc3ccccc3)CC2)cc1OC.Cl.Cl` [compound No. 1-6, 1-[3-(3,4-Dimethoxyphenyl)propyl]-4-(3-phenylpropyl)piperazine dihydrochloride], for which the IC50 on sigma receptors [1] came out at 14.9 nM. The “amount of acetylcholine (% control)” value in experiment [2] (20 mg/kg) was determined as 146.1 % control; in experiment [2] (40 mg/kg), 176.9 % control.
Take `COc1ccc(CCN2CCN(Cc3ccccc3)CC2)cc1OC` [compound No. 1-3, 1-[2-(3,4-Dimethoxyphenyl)ethyl]-4-benzylpiperazine dihydrochloride]: the IC50 at μ receptors was over 10000 nM; at sigma receptors [3] ([3H](+)-SKF-10047 5 nM, guinea pig brain membrane, 25° C., 30 minutes), 4.28 nM.
Consider `COc1ccc(CCN2CCN(CCCCc3ccccc3)CC2)cc1OC.Cl.Cl` [compound No. 1-4, 1-[2-(3,4-Dimethoxyphenyl)ethyl]-4-(4-phenylbutyl)piperazine dihydrochloride], for which the IC50 at sigma receptors [1] amounted to 10.7 nM. In addition, the “amount of acetylcholine (% control)” value in experiment [2] (40 mg/kg) is reported as 146.2 % control; in experiment [2] (80 mg/kg), 164.9 % control.
For the compound `COc1ccc(CCN2CCN(CCc3ccccc3)CC2)cc1OC` [compound No. 1-2, 1-[2-(3,4-Dimethoxyphenyl)ethyl]-4-(2-phenylethyl)piperazine dihydrochloride], the half-maximal inhibitory concentration (IC50) is over 10000 nM against μ receptors, 18 nM at sigma receptors [1] and 9.32 nM at sigma receptors [3].
At μ receptors, `COc1ccc(CCN2CCN(CCCc3ccccc3)CC2)cc1OC.Cl.Cl` [compound No. 1-1, 1-[2-(3,4-Dimethoxyphenyl)ethyl]-4-(3-phenylpropyl)piperazine dihydrochloride] displayed an IC50 of over 10000 nM. Also, the “amount of acetylcholine (% control)” value in experiment [2] (10 mg/kg) turned out to be 154.3 % control; in experiment [2] (20 mg/kg), 170.0 % control.

For the origin of these results see patent US5736546A, “1,4-(diphenlyalkyl) piperazine derivatives” (Santen Pharmaceutical Co., Ltd., priority 1993, dated 1998).
